Results published in patent US9399666B2, “Inhibiting interaction between the HIF-1ALPHA and p300/CBP with hydrogen bond surrogate-based helices” (New York University, priority 2008, dated 2016).
Like-named read-outs stand apart in the source and are kept apart here. Peptide text beside a SMILES is read from it.

Experiments:
[1] = biological target: p300 (Homo sapiens, UniProt Q09472); experiment: Affinity for p300 by isothermal titration calorimetry; assay type: binding; details: for Kd: isothermal titration calorimetry, p300, read-out: Kd (ITC); for Affinity for p300 (in words): ITC
Excerpt: Helix αA of HIF-1α C-TAD, shown in FIG. 1A and FIG. 1C, is critical for the interaction between the CH1 domain and HIF-1α, because mutation of its residues or hydroxylation of Asn803 is known to disrupt this complex and inhibit HIF-1α mediated transcription (Freedman et al., “Structural Basis for Recruitment of CBP/p300 by Hypoxia-inducible Factor-1α,” Proc. Nat'l Acad. Sci. USA 99:5367-72 (2002); Dames et al., “Structural Basis for Hif-1α/CBP Recognition in the Cellular Hypoxic Response,” Proc. Nat'1 Acad. Sci. USA 99:5271-6 (2002). Development of HBS helices as potential inhibitors of VEGF transcription was begun by mimicking the aA helix region of HIF-1. This helix consists of eight residues, […] (SEQ ID NO: 111), and features three residues, Asp-Cys-Glu, critical for binding with p300/CBP. Several linear peptides and their HBS α-helix analogs were designed to gauge the potential of these molecules to inhibit VEGF transcription in cell culture. Each unconstrained peptide and HBS helix was synthesized using the procedures described in (Dimartino et al., “Solid-phase Synthesis of Hydrogen-bond Surrogate-derived α-Helices,” Org. Lett. 7:2389-92 (2005); Chapman & Arora, “Optimized Synthesis of Hydrogen-bond Surrogate Helices: Surprising Effects of Microwave Heating on the Activity of Grubbs Catalysts,” Org. Lett. 8:5825-8 (2006)). The percent helicity of each peptide was determined using circular dichroism spectroscopy in 10 mM phosphate buffered saline as described in (Wang et al., “Evaluation of Biologically Relevant Short α-Helices Stabilized by a Main-chain Hydrogen-bond Surrogate,” J. Am. Chem. Soc. 128:9248-56 (2006)). The affinity of each peptide for p300 was measured by isothermal titration calorimetry analysis (Wiseman et al., “Rapid Measurement of Binding Constants and Heats of Binding Using a New Titration calorimeter,” Anal. Biochem. 179:131-7 (1989); Freire et al., “Isothermal Titration calorimetry,” Anal. Chem. 62:A950-A959 (1990); Chervenak & Toone, “Calorimetric Analysis of the Binding of Lectins with Overlapping Carhohydrate-binding Ligand Specificities,” Biochemistry 34:5685-95 (1995); Aki et al., “Competitive Binding of Drugs to the Multiple Binding Sites on Human Serum Albumin. A calorimetric Study,” J Thermal Anal. calorim. 57:36170 (1999); Graziano et al., “Linkage of Proton Binding to the Thermal Unfolding of Sso7d from the Hyperthermophilic Archaebacterium Sulfolobus solfataricus,” Int'l J. Biol. Macromolecules 26:45-53 (1999); Pluschke & Mutz, “Use of Isothermal Titration calorimetry in the Development of Molecularly Defined Vaccines,” J Thermal Anal. calorim. 57:377-88 (1999); Corbell et al., “A Comparison of Biological and calorimetric Analyses of Multivalent Glycodendrimer Ligands for Concanavalin A,” Tetrahedron-Asymmetry 11:95-111 (2000)). The ability of each peptide to downregulate VEGF transcription in cell culture was evaluated by […] quantitative RT-PCR, as described above. The cytotoxicity of each peptide was determined by monitoring cellular growth and population doubling in the presence of individual peptides at 1μM concentration.

[2] = circular dichroism; details: 10 mM phosphate buffered saline (par. 0128, each peptide; pH given only for 22 and 25, Fig 6B), pH 7.4, ns °C
[3] = system: MDA-MB-231-HRE-Luc cells; assay type: cell-based
Method: MDA-MB-231-HRE-Luc cells were maintained in high glucose Dulbecco's Modified Eagle's Medium (“DMEM”) supplemented with 10% fetal bovine serum and 0.4 g/L Geneticin (G418 sulfate, RPI Corporation). Cells were plated in 24-well dishes (BD Falcon) at a density of […] using 1 mL of a 6.5×10^4 cell/mL suspension. […] Cells were incubated for 6 hours at 37° C. in a humidified atmosphere with 5% CO2. Hypoxia was induced by adding desferoxamine mesylate (DFO, Sigma) to a final concentration of 300 μM, and cells were incubated for an additional 18 hours. Whole cell lysates were isolated by washing the cells twice with ice cold PBS and then adding 150 μL of Cell Culture Lysis Reagent (“CCLR,” Promega). Lysate was collected, centrifuged at 13,000 rpm at 4° C., aliquoted, and stored at −80° C. Luciferase assays were conducted according to the manufacturer's instructions (Promega) using a Turner TD-20e Luminometer. Relative light intensity measurements were normalized by performing a Bradford assay to determine the protein content of the lysate used in the luciferase assay. Briefly, 50 μL of cell lysate/luciferase assay reagent mix was added to 200 μL of Bradford reagent and 750 μL of Millipore water in a 1.5 mL cuvette. Protein standards were created in the range of 1 μg/mL to 10 μg/mL with the appropriate amount of a 1 mg/mL BSA solution. Absorbance was measured at 595 nm using a DU-800 spectrophotometer. The experiments were carried out in triplicate with the error bars calculated as standard error of the mean.

[4] = Percent helicity by circular dichroism spectroscopy; assay type: physicochemical; details: 10 mM phosphate buffered saline
Excerpt: Helix αA of HIF-1α C-TAD, shown in FIG. 1A and FIG. 1C, is critical for the interaction between the CH1 domain and HIF-1α, because mutation of its residues or hydroxylation of Asn803 is known to disrupt this complex and inhibit HIF-1α mediated transcription (Freedman et al., “Structural Basis for Recruitment of CBP/p300 by Hypoxia-inducible Factor-1α,” Proc. Nat'l Acad. Sci. USA 99:5367-72 (2002); Dames et al., “Structural Basis for Hif-1α/CBP Recognition in the Cellular Hypoxic Response,” Proc. Nat'1 Acad. Sci. USA 99:5271-6 (2002). Development of HBS helices as potential inhibitors of VEGF transcription was begun by mimicking the aA helix region of HIF-1. This helix consists of eight residues, […] (SEQ ID NO: 111), and features three residues, Asp-Cys-Glu, critical for binding with p300/CBP. Several linear peptides and their HBS α-helix analogs were designed to gauge the potential of these molecules to inhibit VEGF transcription in cell culture. Each unconstrained peptide and HBS helix was synthesized using the procedures described in (Dimartino et al., “Solid-phase Synthesis of Hydrogen-bond Surrogate-derived α-Helices,” Org. Lett. 7:2389-92 (2005); Chapman & Arora, “Optimized Synthesis of Hydrogen-bond Surrogate Helices: Surprising Effects of Microwave Heating on the Activity of Grubbs Catalysts,” Org. Lett. 8:5825-8 (2006)). The percent helicity of each peptide was determined using circular dichroism spectroscopy in 10 mM phosphate buffered saline as described in (Wang et al., “Evaluation of Biologically Relevant Short α-Helices Stabilized by a Main-chain Hydrogen-bond Surrogate,” J. Am. Chem. Soc. 128:9248-56 (2006)). The affinity of each peptide for p300 was measured by isothermal titration calorimetry analysis (Wiseman et al., “Rapid Measurement of Binding Constants and Heats of Binding Using a New Titration calorimeter,” Anal. Biochem. 179:131-7 (1989); Freire et al., “Isothermal Titration calorimetry,” Anal. Chem. 62:A950-A959 (1990); Chervenak & Toone, “Calorimetric Analysis of the Binding of Lectins with Overlapping Carhohydrate-binding Ligand Specificities,” Biochemistry 34:5685-95 (1995); Aki et al., “Competitive Binding of Drugs to the Multiple Binding Sites on Human Serum Albumin. A calorimetric Study,” J Thermal Anal. calorim. […] The ability of each peptide to downregulate VEGF transcription in cell culture was evaluated by […] quantitative RT-PCR, as described above. The cytotoxicity of each peptide was determined by monitoring cellular growth and population doubling in the presence of individual peptides at 1μM concentration.

Structure (SMILES) | Kd [1] [nM] | helicity [2] [%] | % Transcription inhibition in cell culture (Luc) ([3]; 1000 nM) | Affinity for p300 (in words) [1] | % Helicity [4] [%] | Inhibition of VEGF transcription in cell culture (in words) [3] | % Transcription inhibition in cell culture (Luc) ([3]; luciferase assay, 1 μM peptide) [%]
CC(C)[C@H](NC(=O)[C@H](CCC(=O)O)NC(=O)[C@H](CS)NC(=O)[C@H](CC(=O)O)NC(=O)[C@H](Cc1ccc(O)cc1)N1CC=CCCC(=O)N[C@@H]([C@@H](C)O)C(=O)N[C@@H](C)C1=O)C(=O)N[C@@H](CC(N)=O)C(=O)N[C@@H](C)C(N)=O [Compound 20] | 540 | 44 | 0 ± 5 (Luc) % |  |  |  | 
CC(C)[C@H](NC(=O)[C@H](CCC(=O)O)NC(=O)[C@@H](NC(=O)[C@H](CC(=O)O)NC(=O)[C@H](Cc1ccc(O)cc1)N1CC=CCCC(=O)N[C@@H]([C@@H](C)O)C(=O)N[C@@H](C)C1=O)C(C)C)C(=O)N[C@@H](CC(N)=O)C(=O)N[C@@H](C)C(N)=O [Compound 21] | 690 ± 60 | 16 |  |  |  |  | 
C[C@H](NC(=O)[C@H](CC(N)=O)NC(=O)[C@H](Cc1ccc(O)cc1)NC(=O)[C@H](CCC(=O)O)NC(=O)[C@H](CS)NC(=O)[C@H](CC(=O)O)NC(=O)[C@H](C)N1CC=CCCC(=O)N[C@@H]([C@@H](C)O)C(=O)N[C@@H](C)C1=O)C(=O)N[C@@H](CCCNC(=N)N)C(N)=O [Compound 22] | 420 ± 35 | 53 |  |  |  |  | 
CC(=O)N[C@H](C(=O)N[C@@H](CO)C(=O)N[C@@H](Cc1ccc(O)cc1)C(=O)N[C@@H](CC(=O)O)C(=O)N[C@@H](CS)C(=O)N[C@@H](CCC(=O)O)C(=O)N[C@H](C(=O)N[C@@H](CC(N)=O)C(=O)N[C@@H](C)C(N)=O)C(C)C)[C@@H](C)O [Compound 23] (Ac-TSYDCEVNA-NH2) |  | 14 |  | bound p300 with significant affinities | 14 | failed to inhibit VEGF transcription in cell culture | 10 ± 5
CC(=O)N[C@H](C(=O)N[C@@H](C)C(=O)N[C@@H](Cc1ccc(O)cc1)C(=O)N[C@@H](CC(=O)O)C(=O)N[C@@H](CS)C(=O)N[C@@H](CCC(=O)O)C(=O)N[C@H](C(=O)N[C@@H](CC(N)=O)C(=O)N[C@@H](C)C(N)=O)C(C)C)[C@@H](C)O [Compound 24] (Ac-TAYDCEVNA-NH2) |  | 15 |  | bound p300 with significant affinities | 15 | failed to inhibit VEGF transcription in cell culture | 15 ± 5
